Reference: PubChem BioAssay AID602235 (The Scripps Research Institute Molecular Screening Center, 2012)
Activity calls are given as the source filed them. No rule for the calls is given here.

target: Nuclear receptor coactivator 1 (Homo sapiens) (UniProt Q15788); test: SRC1 (NCOA1) coactivator inhibitors, dose response, cell-based, luciferase reporter, luminescence (AID 602235);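 also: cells transfected with pGL4.31 reporter plus pBIND-SRC1 vector; potency is for inhibitors that lower SRC1 reporter luminescence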
Sequence (Q15788 whole entry, looked up): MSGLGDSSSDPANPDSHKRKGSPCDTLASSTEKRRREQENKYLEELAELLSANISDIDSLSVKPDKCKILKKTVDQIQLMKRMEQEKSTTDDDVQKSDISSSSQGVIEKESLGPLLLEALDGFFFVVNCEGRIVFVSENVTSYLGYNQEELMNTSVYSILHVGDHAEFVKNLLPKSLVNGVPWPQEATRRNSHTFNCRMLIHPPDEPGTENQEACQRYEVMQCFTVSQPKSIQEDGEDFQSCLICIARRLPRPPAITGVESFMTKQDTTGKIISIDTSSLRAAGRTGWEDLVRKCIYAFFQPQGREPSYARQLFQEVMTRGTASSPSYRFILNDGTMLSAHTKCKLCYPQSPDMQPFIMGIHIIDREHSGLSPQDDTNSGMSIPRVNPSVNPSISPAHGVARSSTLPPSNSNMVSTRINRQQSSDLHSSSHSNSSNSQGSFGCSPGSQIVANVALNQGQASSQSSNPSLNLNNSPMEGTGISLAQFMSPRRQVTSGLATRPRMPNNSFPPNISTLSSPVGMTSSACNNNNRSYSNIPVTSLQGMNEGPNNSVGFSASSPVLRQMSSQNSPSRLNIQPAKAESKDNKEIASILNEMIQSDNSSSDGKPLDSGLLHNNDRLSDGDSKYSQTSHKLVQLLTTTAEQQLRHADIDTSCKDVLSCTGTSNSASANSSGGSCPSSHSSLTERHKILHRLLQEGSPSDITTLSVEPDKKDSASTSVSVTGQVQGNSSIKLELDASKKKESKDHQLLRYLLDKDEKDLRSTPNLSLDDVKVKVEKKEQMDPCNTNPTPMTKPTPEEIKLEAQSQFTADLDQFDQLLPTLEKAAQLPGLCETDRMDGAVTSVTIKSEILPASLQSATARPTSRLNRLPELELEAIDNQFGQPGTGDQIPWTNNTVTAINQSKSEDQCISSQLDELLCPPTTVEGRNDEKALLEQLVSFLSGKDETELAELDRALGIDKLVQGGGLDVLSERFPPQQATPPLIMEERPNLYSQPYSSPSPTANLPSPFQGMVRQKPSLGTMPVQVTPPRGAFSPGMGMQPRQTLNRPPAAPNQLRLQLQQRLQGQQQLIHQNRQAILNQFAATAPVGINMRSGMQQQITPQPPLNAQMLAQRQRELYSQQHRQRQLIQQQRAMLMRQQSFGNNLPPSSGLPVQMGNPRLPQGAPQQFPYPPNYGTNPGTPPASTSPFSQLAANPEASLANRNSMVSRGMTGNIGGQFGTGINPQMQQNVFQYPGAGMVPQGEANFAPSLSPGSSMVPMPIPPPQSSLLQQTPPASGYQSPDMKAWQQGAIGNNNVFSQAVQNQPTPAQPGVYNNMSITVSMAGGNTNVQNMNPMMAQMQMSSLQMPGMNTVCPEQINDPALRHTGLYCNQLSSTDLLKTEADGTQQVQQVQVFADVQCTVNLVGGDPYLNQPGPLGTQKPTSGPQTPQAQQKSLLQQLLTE

Row | SMILES | IC50
1 | COc1ccc2[nH]c(=O)c(CN(CCN3CCCC3)C(=O)Nc3ccccc3Cl)cc2c1 | > 35.8 µM (inactive)
2 | O=C(O)c1ccccc1-c1c2cc(I)c(=O)c(I)c-2oc2c(I)c(O)c(I)cc12 | > 35.9 µM (inactive)
3 | O=C(NC1CCCCC1)C(c1cccnc1)N(C(=O)CCl)c1cccc(Cl)c1 (stereo not drawn) | 6.91 µM
4 | Cc1cc(/C=C2\Cc3ccccc3C2=O)c(C)n1-c1ccccc1 | > 35.9 µM (inactive)
5 | COc1ccc2c(=O)cc(-c3ccncc3)oc2c1OC | inactive
6 | Cc1ccc(O)c(Nc2ncnc3ccc([N+](=O)[O-])cc23)c1 | inactive
7 | CC[C@@]1(O)C(=O)OCc2c1cc1n(c2=O)Cc2cc3c(NC(=O)CN)cccc3nc2-1 | > 35.9 µM (inactive)
8 | CCN(c1ccccc1)S(=O)(=O)c1cc(C(=O)Nc2ccc(Br)cc2)ccc1F | > 12 µM (inactive)
9 | Cc1ccc(O)c(C(=O)c2cnn(C(=O)COc3ccc(Cl)cc3)c2)c1 | inactive
10 | COc1ccccc1N(C(=O)CCl)c1cn(C(C)=O)c2ccccc12 | > 35.9 µM (inactive)
11 | CN(C)c1ccc(/C=C/c2nc3ccccc3s2)cc1 | inactive
12 | O=[N+]([O-])c1cccc2c1ccc1ncccc12 | 9.46 µM
13 | COc1cc2c(cc1OC)C(NC(=O)C(F)(F)F)CNC2=O (stereo not drawn) | 6.97 µM
14 | Cc1ccc(/C=C2/SC(=S)N(CCCC(=O)Nc3ccc(O)cc3)C2=O)cc1 | > 35.9 µM (inactive)
15 | O=C(Nc1cccc2c1CCCC2)c1cc([N+](=O)[O-])ccc1Cl | > 35.9 µM (inactive)
16 | S=C(Nc1ccccc1)Nc1ccc(OCc2ccc(Cl)cc2Cl)cc1 | 4.26 µM
17 | COc1ccc(Cc2nnc(SCc3ccc([N+](=O)[O-])cc3)o2)cc1 | inactive
18 | C=CCc1ccccc1OCC(=O)N/N=C/c1ccc(OC(C)=O)cc1OC(C)=O | inactive
19 | c1ccc(-c2nnc(-c3ccccn3)nc2NC2CCCCC2)cc1 | 5.22 µM
20 | O=C(CCC(=O)Nc1ccc(Br)cc1)N/N=C/c1ccccc1O | 4.94 µM
21 | C=CCn1c(O)c(C(C)=NCc2cc(OC)cc(OC)c2)c(=O)[nH]c1=O | inactive
22 | C=C1C(=O)[C@@]23C[C@H]4[C@@H]5[C@@]6(C)CCC[C@@]57[C@@H]2[C@@H](O)[C@@H]1C[C@H]3[C@H]7N4C6 | 3.71 µM
23 | CCOc1cc(C(N)=O)cc(Br)c1OC | inactive
24 | CCN(C(=O)c1cc(S(=O)(=O)N2CCCCC2)c[nH]1)c1ccc(OC)cc1 | inactive
25 | COc1cc(/C=C2\CC(C(C)(C)C)C/C(=C\c3cc(OC)c(OC)c(OC)c3)C2=O)cc(OC)c1OC (stereo not drawn) | > 35.9 µM (inactive)
26 | CCOc1ccc(/C=C2\SC(=S)N(CCC(=O)O)C2=O)cc1 | > 35.9 µM (inactive)

Row | SMILES | IC50
27 | O=C(O)c1ccccc1C(=O)Nc1ccc(Oc2cccc3ccccc23)cc1 | > 35.9 µM (inactive)
28 | O=C(N/N=C/c1ccc(O)cc1O)/C(=C/c1ccccc1)CCO | inactive
29 | CN1CCN(c2cccc3c2C(=O)c2ccccc2C3=O)CC1 | > 35.9 µM (inactive)
30 | CCCCN(CCCC)c1ncnc2nc[nH]c12 | inactive
31 | O=C1CCC2S/C(=C/Nc3ccc(C(F)(F)F)cc3)C(=O)N12 (stereo not drawn) | > 35.9 µM (inactive)
32 | Cc1nn(CC(=O)N2CCN(c3cccc(C(F)(F)F)c3)CC2)c(=O)c2cccn12 | inactive
33 | COc1cc(OC)c2cc(C(=O)N/N=C/c3cccc(OC)c3O)[nH]c2c1 | inactive
34 | O=C(NC(NC(=S)N1CCOCC1)C(Cl)(Cl)Cl)c1ccc(Cl)cc1 (stereo not drawn) | > 35.9 µM (inactive)
35 | O=C(Nc1cccc(C(F)(F)F)c1)Nc1nnc([C@@H]2C[C@H](O)[C@@H](CO)O2)s1 | 9.55 µM
36 | COc1ccc2c(C#N)c3ccccn3c2c1 | inactive
37 | COc1cccc(C2=CC(=O)CC(C)(C)C2)c1 | inactive
38 | CCC(C)(C)n1nnnc1CN1CCC(n2c(C)nc3cc(C(F)(F)F)ccc32)CC1 | > 35.9 µM (inactive)
39 | O=c1ccc2c(ccc3ncccc32)o1 | inactive
40 | Cn1nc(C(F)(F)F)c(C#N)c1N1CCN(c2ccc(F)cc2)CC1 | 9.32 µM
41 | CCN(CC(=O)Nc1ccc(NC(C)=O)cc1)C(=O)C1(c2ccc(Cl)cc2)CCC1 | inactive
42 | Cc1nn(C(C)(C)C)c(C)c1/C=N/OC(=O)Nc1ccc(Cl)c(Cl)c1 | inactive
43 | c1cc2c(cn1)cnc1cscc12 | inactive
44 | Cc1ccc(S(=O)(=O)NC(CC(C)C)C(=O)NCC(c2ccco2)N2CCCCC2)cc1 (stereo not drawn) | > 35.9 µM (inactive)
45 | Cc1c(/C(O)=C2/C(=O)C(=O)N(Cc3cccnc3)C2c2ccccn2)cnn1-c1ccccc1 (stereo not drawn) | inactive
46 | COc1ccc(OC)c(/C=C2\NC(=O)NC2=O)c1 | 7.42 µM
47 | Cc1nc2ccccn2c1-c1ccnc(=S)[nH]1 | 6.33 µM
48 | CCc1ccc(-c2nc(CSCC(=O)NCc3ccco3)c(C)o2)cc1 | > 35.9 µM (inactive)
49 | Nc1ccn(C2OC(CO)C(O)C2O)c(=O)n1 (stereo not drawn) | > 11.9 µM (inactive)
50 | CC(=O)c1cc2c(C)cc(=O)oc2cc1O | > 35.9 µM (inactive)
51 | Cc1ccc(C(=O)Nc2sc(C)c(-c3ccccc3)c2C(N)=O)cc1[N+](=O)[O-] | > 35.9 µM (inactive)
52 | O=C(CCCc1nc(-c2ccccc2Cl)no1)NC1CCCC1 | inactive

Row | SMILES | IC50
53 | CCOC(=O)c1cccc2c1-c1ccccc1/C2=N/O | 7.13 µM
54 | N#Cc1cc2ccncc2c2ccccc12 | > 35.9 µM (inactive)
55 | Cn1nc(C(F)(F)F)c(C#N)c1N1CCN(c2ccccc2)CC1 | 7.05 µM
56 | CC(=O)/C(N=Nc1ccc2c(c1)OCCO2)=C(\C)O | > 35.9 µM (inactive)
57 | Cc1ccc(NC(=O)CCC(=O)N/N=C/c2ccc(O)cc2O)cc1 | inactive
58 | CCC(=O)Oc1c(C(=O)CC)cc2c(C)cc(=O)oc2c1C | > 35.8 µM (inactive)
59 | c1cnc2ccc(-n3ccnc3)cc2c1 | > 35.9 µM (inactive)
60 | CCc1nc(N)nc(N)c1-c1ccc(Cl)c([N+](=O)[O-])c1 | 6.12 µM
61 | Cc1ccc(S(=O)(=O)N2[C@@H](c3ccc(C(C)(C)C)cc3)C(C(=O)O)=CC[C@H]2c2ccc(Cl)cc2)cc1 | inactive
62 | CN(Cc1cnc2nc(N)nc(N)c2n1)c1ccc(C(=O)NC(CCC(=O)O)C(=O)O)cc1 (stereo not drawn) | > 35.9 µM (inactive)
63 | COc1cc2c(cc1OC)C(C)N(C(=O)c1cccc([N+](=O)[O-])c1)CC2 (stereo not drawn) | inactive
64 | O=C(CCCOc1ccc(Cl)cc1Cl)N/N=C/c1ccccc1O | 6.73 µM
65 | CCCS(=O)(=O)c1c(S(=O)(=O)CCC)c2c(C)cccn2c1C(=O)N/N=C/c1cc(O)cc(O)c1 | inactive
66 | Cc1c(CC(=O)NCCCC(=O)O)c(=O)oc2cc3c(cc12)CCC(C)(C)O3 | inactive
67 | O=C(CCn1cnc(-c2ccccc2)c1-c1ccccc1)N/N=C/c1ccccc1O | inactive
68 | COC(=O)N(NC(=O)C(O)(CCC(C)C)CCC(C)C)c1ccccc1 | > 35.9 µM (inactive)
69 | COc1cccc(/C=N/NC(=O)C(=O)Nc2ccccc2OC(F)(F)C(F)F)c1O | 5.69 µM
70 | CN(Cc1cnc2nc(N)nc(N)c2n1)c1ccc(C(=O)N[C@@H](CCC(=O)O)C(=O)O)cc1 | > 35.9 µM (inactive)
71 | CC(NC(=O)COC(=O)c1cccs1)c1ccccc1 (stereo not drawn) | > 35.9 µM (inactive)
72 | Cc1sc2ncnc(N3CCC(C(=O)N(C)CC(=O)Nc4cccc(F)c4)CC3)c2c1C | > 12 µM (inactive)
73 | CCCCC(=O)OCC(=O)C1(O)Cc2c(O)c3c(c(O)c2C(OC2CC(NC(=O)C(F)(F)F)C(O)C(C)O2)C1)C(=O)c1c(OC)cccc1C3=O (stereo not drawn) | > 35.9 µM (inactive)
74 | CCOC(=O)CC(=O)CSc1nccc(-c2cccnc2)n1 | inactive
75 | CCOC(=O)c1c(NC(=O)C(C)N2CCN(C(=O)c3ccco3)CC2)sc2c1CCCC2 (stereo not drawn) | inactive
76 | CCn1c(Oc2cccc(Br)c2)nc2c1c(=O)n(C)c(=O)n2C | inactive
77 | O=C(Nc1cccnc1)c1ccc(C(=O)Nc2cccnc2)cc1 | > 35.9 µM (inactive)
78 | COc1ccc(-c2ncncc2-c2ccccc2)c(O)c1 | inactive

Row | SMILES | IC50
79 | O=C(Nc1c(-c2ccccc2)[nH][nH]c1=O)c1cccc(C(F)(F)F)c1 | > 35.8 µM (inactive)
80 | O=C(N/N=C/c1ccccc1O)/C(=C/c1ccccc1)CCO | inactive
81 | CCOc1ccc(/C=C2\SC(=S)N(CCCC(=O)NCCCN3CCOCC3)C2=O)cc1 | > 12 µM (inactive)
82 | CNc1ncnc(Sc2nc(N)nc3nc[nH]c23)c1[N+](=O)[O-] | > 35.9 µM (inactive)
83 | O=C1c2cccc(OCc3ccc(F)cc3)c2CCN1Cc1ccccc1 | > 35.9 µM (inactive)
84 | C=CCn1c(Oc2ccccc2F)nc2c1c(=O)n(C)c(=O)n2C | inactive
85 | COc1cccc(CNc2ncnc3ccc(-c4c(C)noc4C)cc23)c1 | > 35.9 µM (inactive)
86 | CCC(=O)c1ccc(Oc2nc3c(c(=O)n(C)c(=O)n3C)n2CC)cc1 | 7.62 µM
87 | CCCCC(=O)Nc1cccn2ncnc12 | inactive
88 | Fc1cccc(CSc2nnc3ccc(-c4ccncc4)nn23)c1 | > 35.8 µM (inactive)
89 | COc1cc2c3c([nH]c2cc1F)C(=O)NCC3 | 9.54 µM
90 | COc1ccc(Oc2nc3c(c(=O)n(C)c(=O)n3C)n2C)cc1 | inactive
91 | Cc1cc(=O)[nH]c(Nc2cccc(Br)c2)n1 | inactive
92 | COc1ccc(-n2cnc3c(sc4nccc(N(C)C)c43)c2=O)cc1 | inactive
93 | CCOc1ccc(-c2noc(CCC(=O)O)n2)cc1 | > 35.9 µM (inactive)
94 | COc1cc(C(=O)NC(=S)NNC(=O)c2cnccn2)cc(OC)c1OC | inactive
95 | NC(=S)NN=Cc1ccc(OC(=O)COc2cc(Cl)c(Cl)cc2Cl)cn1 | inactive
96 | O=C(N/N=C/c1coc2ccc(Cl)cc2c1=O)c1ccc(O)cc1 | > 35.9 µM (inactive)
97 | COc1ccc(-c2cnc(N)nc2-c2ccc(OC)cc2O)cc1 | inactive
98 | Cc1nc(N2CCC(C(N)=O)CC2)c2c(-c3cccs3)csc2n1 | 8.59 µM
99 | Cc1nc2c(-c3ccc(Cl)cc3)c(C)[nH]n2c(=O)c1Cc1ccccc1 | 9.38 µM
100 | CC1CC(C)C(=NNC(N)=O)C(C(O)CC2CCC(=O)NC2=O)C1 (stereo not drawn) | 8.57 µM
101 | CN(Cc1cnc2nc(N)nc(N)c2n1)c1ccc(C(=O)NC(CCC(=O)O)C(=O)O)c2ccccc12 (stereo not drawn) | > 35.9 µM (inactive)
102 | C=CCNc1ncnc2ccc(Br)cc12 | 6.79 µM
103 | CC(C)n1c(SCC(=O)Nc2nc3c(s2)CCCC3)nc2c1c(=O)n(C)c(=O)n2C | inactive
